This assay addresses T1, recombinant protein containing the human ENPP1 enzymatic domain (Homo sapiens, UniProt P22413).
T1 construct: recombinant protein containing the human ENPP1 enzymatic domain; purchased R&D Systems 6136-EN-010
T1 sequence (P22413 191-591 limits assumed): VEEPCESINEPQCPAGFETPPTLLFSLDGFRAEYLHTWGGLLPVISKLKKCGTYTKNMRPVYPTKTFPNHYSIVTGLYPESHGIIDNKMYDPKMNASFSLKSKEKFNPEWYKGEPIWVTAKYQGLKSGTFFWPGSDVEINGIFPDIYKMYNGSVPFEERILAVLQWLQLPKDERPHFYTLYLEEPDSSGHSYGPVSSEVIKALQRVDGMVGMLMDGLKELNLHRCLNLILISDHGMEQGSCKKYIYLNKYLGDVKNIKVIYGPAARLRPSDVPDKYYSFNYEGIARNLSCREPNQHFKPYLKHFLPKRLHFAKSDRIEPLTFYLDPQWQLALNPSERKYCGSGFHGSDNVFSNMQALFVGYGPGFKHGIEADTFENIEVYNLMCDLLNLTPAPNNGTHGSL
The experiment in a line: ENPP1 Enzymatic Inhibition Assay (2′3′-cGAMP substrate, AMP-Glo luminescence). The assay is classed as biochemical. Particulars: 1 nM ENPP1, 20 uM 2′3′-cGAMP substrate, 30 minutes at 37° C. As to the method: The inhibition of ENPP1's phosphodiesterase activity were tested in a purified enzymatic assay using 2′3′-cyclic GAMP as a substrate which allowed for the release of cleaved AMP to be monitored using a luminescent assay.
Putative inhibitors were diluted in assay buffer (50 mM Tris pH 8.0, 250 mM NaCl, 0.5 mM CaCl2, 1 uM ZnCl2, 1% DMSO) and pre-incubated for 15 minutes at 37° C. with recombinant protein containing the human ENPP1 enzymatic domain (R&D Systems cat. #6136-EN-010). The enzymatic reaction was initiated upon addition of the 2′3′-cGAMP substrate. The final reaction concentrations were 1 nM ENPP1 and 20 uM 2′3′-cGAMP substrate in a 25 uL volume. Inhibitor concentrations ranged from 10 uM to 0.2 nM. The reaction was incubated for 30 minutes at 37° C.
After reacting for 30 minutes, the amount of AMP generated from the cleavage of 2′3′-cGAMP was determined using the Promega AMP-Glo method according to the manufacturer's protocol. First, AMP-Glo reagent 1 was added and incubated with the reaction mix for 1 hour at room temperature. Second, AMP Detection solution was added and the mixture was incubated for an additional hour. The luminescence of the mixture was read on a Perkin Elmer Ensight plate reader.
The maximum and minimum levels of ENPP1 activity were established using no inhibitor and no enzyme controls, respectively. The activity observed using ENPP1 inhibitors was quantified as the percent of activity relative to these controls. IC50 values were calculated using GraphPad Prism by fitting a sigmoidal variable slope nonlinear regression model to the data.
The IC50 is the point on the concentration scale where inhibition reaches its midpoint. As for `COc1ccc2c(Oc3ccc(S(N)(=O)=NCCOc4ccccc4)cc3)ccnc2c1` (centres unmarked) [Compound 34, 4-((7-methoxyquinolin-4-yl)oxy)-N′-(2-phenoxyethyl)benzenesulfonimidamide], the IC50 is 10 to 100 nM. `COc1ccc2c(Oc3ccc(S(N)(=O)=NCc4ccc(-c5ccncc5)cc4)cc3)ccnc2c1` (centres unmarked) [Compound 35, 4-((7-methoxyquinolin-4-yl)oxy)-N′-(4-(pyridin-4-yl)benzyl)benzenesulfonimidamide]: the IC50 is below 10 nM. Then `COc1ccc2c(Oc3ccc(S(N)(=O)=NCC4CCC4)cc3)ccnc2c1` (centres unmarked) [Compound 36, N′-(cyclobutylmethyl)-4-((7-methoxyquinolin-4-yl)oxy)benzenesulfonimidamide], with below 10 nM. Turning to `COc1ccc2c(Oc3ccc(S(N)(=O)=NCC(F)(F)F)cc3)ccnc2c1` (centres unmarked) [Compound 37, 4-((7-methoxyquinolin-4-yl)oxy)-N′-(2,2,2-trifluoroethyl)benzenesulfonimidamide], the IC50 was below 10 nM. Take `COc1ccc2c(Oc3ccc(S(N)(=O)=Nc4ccc(-c5ccncc5)cc4)cc3)ccnc2c1` (centres unmarked) [Compound 38, 4-((7-methoxyquinolin-4-yl)oxy)-N′-(4-(pyridin-4-yl)phenyl)benzenesulfonimidamide]: the IC50 was 10 to 100 nM.

Turning to `COc1ccc2c(Oc3ccc(S(N)(=O)=NCCNC(=O)OC(C)(C)C)cc3)ccnc2c1` (centres unmarked) [Compound 39, tert-butyl (2-((amino(4-((7-methoxyquinolin-4-yl)oxy)phenyl)(oxo)-λ^6-sulfaneylidene)amino)ethyl) carbamate], the IC50 is 10 to 100 nM. Then `COc1ccc2c(Oc3ccc(S(N)(=O)=NCCN)cc3)ccnc2c1` (centres unmarked) [Compound 40, N′-(2-aminoethyl)-4-((7-methoxyquinolin-4-yl)oxy)benzenesulfonimidamide], with 10 to 100 nM; and `COc1ccc2c(Oc3ccc(S(N)(=O)=NCCNC(C)=O)cc3)ccnc2c1` (centres unmarked) [Compound 41, N-(2-((amino(4-((7-methoxyquinolin-4-yl)oxy)phenyl)(oxo)-I^6-sulfaneylidene)amino)ethyl)acetamide], with below 10 nM. Regarding `COc1ccc2c(Nc3ccc(S(=N)(=O)N(C)C)cc3)ncnc2c1` (centres unmarked) [Compound 42, 4-((7-methoxyquinazolin-4-yl)amino)-N,N-dimethylbenzenesulfonimidamide], the IC50 was in the range of 10 to 100 nM. In the case of `COc1ccc2c(Oc3ccc(S(N)(=O)=NC[C@@H]4CCCN4C(=O)OC(C)(C)C)cc3)ccnc2c1` (stereo partly drawn) [Compound 43, tert-butyl (2S)-2-(((amino(4-((7-methoxyquinolin-4-yl)oxy)phenyl)(oxo)-I^6-sulfaneylidene)amino)methyl) pyrrolidine-1-carboxylate] it was 10 to 100 nM. Regarding `COc1ccc2c(Oc3ccc(S(N)(=O)=NC[C@@H]4CCCN4)cc3)ccnc2c1` (stereo partly drawn) [Compound 44, 4-((7-methoxyquinolin-4-yl)oxy)-N′-(((S)-pyrrolidin-2-yl)methyl)benzenesulfonimidamide], the IC50 fell in the range of 10 to 100 nM.

Values taken from patent US20230183188A1, “ENPP1 MODULATORS AND USES THEREOF” (Vir Biotechnology, Inc., priority 2020, published 2023).
